How the values were obtained:
[1] = molecular target: Proto-oncogene tyrosine-protein kinase receptor Ret (Homo sapiens, UniProt P07949); test: Inhibition of recombinant human N-terminal GST-tagged RET (658 to end residues) expressed in baculovirus Sf21 insect cells preincubated for 5 mins followed by biotinyl-beta Abeta Abeta AAEEEEYFELVAKKK substrate addition after 30 to 60 mins in presence of ATP by fluorescence assay
A549 = test: Antiproliferative activity against human A549 cells harboring wild type EGFR after 72 hrs by MTT assay; format: functional, cell-based; details: A549, 72 h
[2] = molecular target: Tyrosine-protein kinase Tec (Homo sapiens, UniProt P42680); test: Inhibition of recombinant human N-terminal His6-tagged TEC (174 to end residues) expressed in baculovirus Sf21 insect cells preincubated for 5 mins followed by Ulight-TK peptide substrate addition after 30 to 60 mins in presence of ATP by fluorescence assay
[3] = molecular target: Tyrosine-protein kinase ITK/TSK (Homo sapiens, UniProt Q08881); test: Inhibition of recombinant human N-terminal His6-tagged ITK (352 to 617 residues) expressed in baculovirus Sf21 insect cells preincubated for 5 mins followed by Ulight-TK peptide substrate addition after 30 to 60 mins in presence of ATP by fluorescence assay
[4] = molecular target: Epidermal growth factor receptor (Homo sapiens, UniProt P00533); test: Inhibition of recombinant human N-terminal GST-tagged EGFR (696 to end residues) expressed in baculovirus Sf21 insect cells preincubated for 5 mins followed by substrate addition after 30 to 60 mins in presence of ATP by fluorescence assay
[5] = molecular target: Receptor tyrosine-protein kinase erbB-4 (Homo sapiens, UniProt Q15303); test: Inhibition of human N-terminal 6His-tagged HER4 (706 to 991 residues) preincubated for 5 mins followed by substrate addition after 30 to 60 mins in presence ATP of fluorescence assay
[6] = molecular target: Tyrosine-protein kinase Blk (Homo sapiens, UniProt P51451); test: Inhibition of BLK (unknown origin) preincubated for 5 mins followed by substrate addition after 30 to 60 mins in presence of ATP by fluorescence assay
[7] = molecular target: Tyrosine-protein kinase Lck (Homo sapiens, UniProt P06239); test: Inhibition of recombinant human full length N-terminal His6-tagged LCK expressed in Sf21 insect cells preincubated for 5 mins followed by substrate addition after 30 to 60 mins in presence of ATP by fluorescence assay
[8] = molecular target: Tyrosine-protein kinase Fyn (Homo sapiens, UniProt P06241); test: Inhibition of recombinant human full length N-terminal His6-tagged FYN expressed in baculovirus Sf21 insect cells preincubated for 5 mins followed by biotinyl-beta Abeta Abeta AYQAEENTYDEYEN substrate addition after 30 to 60 mins in presence of ATP by fluorescence assay
[9] = molecular target: Protein-tyrosine kinase 6 (Homo sapiens, UniProt Q13882); test: Inhibition of recombinant human full length N-terminal His6-tagged BRK expressed in baculovirus Sf21 insect cells preincubated for 5 mins followed by substrate addition after 30 to 60 mins in presence of ATP by fluorescence assay
[10] = molecular target: Tyrosine-protein kinase ABL1 (Homo sapiens, UniProt P00519); test: Inhibition of recombinant human N-terminal His6-tagged ABL (27 to end residues) expressed in baculovirus Sf21 insect cells preincubated for 5 mins followed by substrate addition after 30 to 60 mins in presence of ATP by fluorescence assay
[11] = molecular target: Tyrosine-protein kinase CSK (Homo sapiens, UniProt P41240); test: Inhibition of recombinant human full length N-terminal GST-tagged CSK expressed in Escherichia coli BL21 (DE3) cells preincubated for 5 mins followed by biotinyl-beta Abeta Abeta AEEEPQYEEIPIYLELLP substrate addition after 30 to 60 mins in presence of ATP by fluorescence assay
[12] = molecular target: Tyrosine-protein kinase JAK1 (Homo sapiens, UniProt P23458); test: Inhibition of human JAK1 expressed in baculovirus in Sf21 insect cells preincubated for 5 mins followed by substrate addition after 30 to 60 mins in presence of ATP by fluorescence assay
[13] = molecular target: Platelet-derived growth factor receptor alpha (Homo sapiens, UniProt P16234); test: Inhibition of human PDGFRalpha expressed in baculovirus Sf21 insect cells preincubated for 5 mins followed by substrate addition after 30 to 60 mins in presence of ATP by fluorescence assay
Homo sapiens [14] = organism: Homo sapiens; test: Selectivity ratio of IC50 for human N-terminal 6His-tagged HER4 (706 to 991 residues) to IC50 for human full length N-terminal His6-tagged BMX
Homo sapiens [15] = organism: Homo sapiens; test: Selectivity ratio of IC50 for recombinant human N-terminal His6-tagged JAK3 (781 to end residues) to IC50 for human full length N-terminal His6-tagged BMX
Homo sapiens [16] = organism: Homo sapiens; test: Selectivity ratio of IC50 for recombinant human N-terminal GST-tagged MKK7beta (2 to end residues) to IC50 for human full length N-terminal His6-tagged BMX
Homo sapiens [17] = organism: Homo sapiens; test: Selectivity ratio of IC50 for BLK (unknown origin) to IC50 for human full length N-terminal His6-tagged BMX
Homo sapiens [18] = organism: Homo sapiens; test: Selectivity ratio of IC50 for recombinant human full length N-terminal His6-tagged YES to IC50 for human full length N-terminal His6-tagged BMX
Homo sapiens [19] = organism: Homo sapiens; test: Selectivity ratio of IC50 for recombinant human full length N-terminal His6-tagged LCK to IC50 for human full length N-terminal His6-tagged BMX
Homo sapiens [20] = organism: Homo sapiens; test: Selectivity ratio of IC50 for recombinant human full length N-terminal His6-tagged LYN to IC50 for human full length N-terminal His6-tagged BMX
Homo sapiens [21] = organism: Homo sapiens; test: Selectivity ratio of IC50 for recombinant human full length N-terminal His6-tagged BRK to IC50 for human full length N-terminal His6-tagged BMX
Homo sapiens [22] = organism: Homo sapiens; test: Selectivity ratio of IC50 for recombinant human N-terminal His6-tagged FER (541 to end residues) to IC50 for human full length N-terminal His6-tagged BMX
Homo sapiens [23] = organism: Homo sapiens; test: Selectivity ratio of IC50 for recombinant human full length N-terminal His6-tagged SYK to IC50 for human full length N-terminal His6-tagged BMX
Homo sapiens [24] = organism: Homo sapiens; test: Selectivity ratio of IC50 for recombinant human C-terminal His6-tagged JAK2 (808 to end residues) to IC50 for human full length N-terminal His6-tagged BMX
Homo sapiens [25] = organism: Homo sapiens; test: Selectivity ratio of IC50 for human PDGFRalpha to IC50 for human full length N-terminal His6-tagged BMX
Homo sapiens [26] = organism: Homo sapiens; test: Selectivity ratio of IC50 for recombinant human N-terminal His6-tagged PLK1 to IC50 for human full length N-terminal His6-tagged BMX
Mus musculus [27] = test: Toxicity in nude mouse xenografted with human NCI-H1975 cells assessed as body weight loss at 25 mg/kg administered qd via oral gavage for 18 days measured on day 14; format: organism-based; details: in vivo, 432 h
Mus musculus [28] = test: Toxicity in nude mouse xenografted with human NCI-H1975 cells assessed as adverse effects at 25 mg/kg administered qd via oral gavage for 18 days measured on day 14; format: organism-based; details: in vivo, 432 h
Mus musculus [29] = test: Toxicity in nude mouse xenografted with human NCI-H1975 cells assessed as abnormal behavior at 25 mg/kg administered qd via oral gavage for 18 days measured on day 14; format: organism-based; details: in vivo, 432 h

Protein-tyrosine kinase 6, sequence (Q13882 whole entry): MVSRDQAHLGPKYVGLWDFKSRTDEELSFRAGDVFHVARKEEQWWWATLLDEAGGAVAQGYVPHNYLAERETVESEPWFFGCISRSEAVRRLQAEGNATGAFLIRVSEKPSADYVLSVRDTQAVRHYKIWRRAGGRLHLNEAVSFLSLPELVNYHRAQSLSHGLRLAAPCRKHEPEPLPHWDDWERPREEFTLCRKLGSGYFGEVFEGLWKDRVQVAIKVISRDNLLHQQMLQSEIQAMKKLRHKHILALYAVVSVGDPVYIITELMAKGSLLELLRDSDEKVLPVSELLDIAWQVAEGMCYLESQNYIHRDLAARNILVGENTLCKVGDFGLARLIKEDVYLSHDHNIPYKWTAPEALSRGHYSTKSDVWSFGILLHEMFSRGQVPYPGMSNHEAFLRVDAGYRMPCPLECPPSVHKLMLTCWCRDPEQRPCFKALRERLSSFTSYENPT
Receptor tyrosine-protein kinase erbB-4, sequence (Q15303 whole entry, the tested form may be a part): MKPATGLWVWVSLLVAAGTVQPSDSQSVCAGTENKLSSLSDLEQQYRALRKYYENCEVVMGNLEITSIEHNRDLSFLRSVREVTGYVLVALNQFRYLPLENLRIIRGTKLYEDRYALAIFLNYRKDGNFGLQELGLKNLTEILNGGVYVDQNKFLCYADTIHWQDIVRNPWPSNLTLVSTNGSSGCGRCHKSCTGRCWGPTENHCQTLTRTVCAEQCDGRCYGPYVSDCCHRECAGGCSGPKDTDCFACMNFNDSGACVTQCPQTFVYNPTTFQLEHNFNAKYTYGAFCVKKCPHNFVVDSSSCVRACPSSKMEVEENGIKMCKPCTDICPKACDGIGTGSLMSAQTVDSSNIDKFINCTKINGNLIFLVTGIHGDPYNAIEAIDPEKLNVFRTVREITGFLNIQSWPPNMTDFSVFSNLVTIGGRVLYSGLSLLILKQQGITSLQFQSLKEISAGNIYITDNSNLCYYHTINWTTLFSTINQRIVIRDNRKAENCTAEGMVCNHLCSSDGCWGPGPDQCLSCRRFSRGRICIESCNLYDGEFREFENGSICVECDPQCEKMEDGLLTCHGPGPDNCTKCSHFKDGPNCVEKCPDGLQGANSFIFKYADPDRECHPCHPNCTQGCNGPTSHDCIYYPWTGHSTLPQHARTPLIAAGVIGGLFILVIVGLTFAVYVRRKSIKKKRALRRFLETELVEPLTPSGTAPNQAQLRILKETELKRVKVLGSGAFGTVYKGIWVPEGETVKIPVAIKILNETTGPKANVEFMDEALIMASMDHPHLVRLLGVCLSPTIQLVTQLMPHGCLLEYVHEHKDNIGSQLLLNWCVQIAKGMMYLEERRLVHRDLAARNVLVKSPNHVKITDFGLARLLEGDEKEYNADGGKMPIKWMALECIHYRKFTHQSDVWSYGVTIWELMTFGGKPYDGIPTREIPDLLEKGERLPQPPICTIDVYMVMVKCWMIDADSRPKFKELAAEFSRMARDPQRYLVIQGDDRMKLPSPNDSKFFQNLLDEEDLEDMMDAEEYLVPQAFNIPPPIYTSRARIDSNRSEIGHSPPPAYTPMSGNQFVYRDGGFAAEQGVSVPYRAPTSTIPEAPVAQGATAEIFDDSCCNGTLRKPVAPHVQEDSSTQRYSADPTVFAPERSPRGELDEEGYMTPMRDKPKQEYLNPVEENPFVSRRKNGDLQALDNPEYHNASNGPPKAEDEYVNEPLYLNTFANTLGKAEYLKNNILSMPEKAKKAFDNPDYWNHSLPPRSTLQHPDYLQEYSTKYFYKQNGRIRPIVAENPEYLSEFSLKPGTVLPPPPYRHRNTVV
Platelet-derived growth factor receptor alpha, sequence (P16234 whole entry, the tested form may be a part): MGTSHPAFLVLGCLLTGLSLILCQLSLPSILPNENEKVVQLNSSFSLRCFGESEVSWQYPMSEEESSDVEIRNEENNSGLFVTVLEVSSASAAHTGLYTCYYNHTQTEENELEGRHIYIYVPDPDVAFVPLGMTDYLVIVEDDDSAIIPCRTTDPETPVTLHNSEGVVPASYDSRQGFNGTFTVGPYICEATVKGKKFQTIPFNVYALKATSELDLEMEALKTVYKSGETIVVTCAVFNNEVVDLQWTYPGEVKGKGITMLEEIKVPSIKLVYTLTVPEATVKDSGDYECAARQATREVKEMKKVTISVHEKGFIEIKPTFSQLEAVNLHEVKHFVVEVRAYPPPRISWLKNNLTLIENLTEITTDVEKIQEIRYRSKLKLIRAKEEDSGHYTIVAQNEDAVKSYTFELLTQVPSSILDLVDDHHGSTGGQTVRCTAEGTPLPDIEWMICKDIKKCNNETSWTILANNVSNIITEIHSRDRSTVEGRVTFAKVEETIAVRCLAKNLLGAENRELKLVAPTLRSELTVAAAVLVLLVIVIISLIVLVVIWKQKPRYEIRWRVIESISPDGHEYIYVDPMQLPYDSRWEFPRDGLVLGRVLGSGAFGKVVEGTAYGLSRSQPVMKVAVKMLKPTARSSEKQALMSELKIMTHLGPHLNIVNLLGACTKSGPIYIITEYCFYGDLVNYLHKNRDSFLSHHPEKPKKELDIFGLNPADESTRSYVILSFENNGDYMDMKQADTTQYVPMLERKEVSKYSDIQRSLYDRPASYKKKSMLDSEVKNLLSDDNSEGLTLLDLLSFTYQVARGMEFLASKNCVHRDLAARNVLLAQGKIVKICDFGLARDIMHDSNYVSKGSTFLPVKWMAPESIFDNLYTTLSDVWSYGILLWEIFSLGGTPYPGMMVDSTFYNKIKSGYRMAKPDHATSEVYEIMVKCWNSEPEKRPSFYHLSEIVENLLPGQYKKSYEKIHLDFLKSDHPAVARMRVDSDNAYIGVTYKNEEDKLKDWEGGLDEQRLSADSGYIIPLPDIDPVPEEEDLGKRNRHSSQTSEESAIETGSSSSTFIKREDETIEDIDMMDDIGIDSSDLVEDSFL
Tyrosine-protein kinase ABL1, sequence (P00519 whole entry): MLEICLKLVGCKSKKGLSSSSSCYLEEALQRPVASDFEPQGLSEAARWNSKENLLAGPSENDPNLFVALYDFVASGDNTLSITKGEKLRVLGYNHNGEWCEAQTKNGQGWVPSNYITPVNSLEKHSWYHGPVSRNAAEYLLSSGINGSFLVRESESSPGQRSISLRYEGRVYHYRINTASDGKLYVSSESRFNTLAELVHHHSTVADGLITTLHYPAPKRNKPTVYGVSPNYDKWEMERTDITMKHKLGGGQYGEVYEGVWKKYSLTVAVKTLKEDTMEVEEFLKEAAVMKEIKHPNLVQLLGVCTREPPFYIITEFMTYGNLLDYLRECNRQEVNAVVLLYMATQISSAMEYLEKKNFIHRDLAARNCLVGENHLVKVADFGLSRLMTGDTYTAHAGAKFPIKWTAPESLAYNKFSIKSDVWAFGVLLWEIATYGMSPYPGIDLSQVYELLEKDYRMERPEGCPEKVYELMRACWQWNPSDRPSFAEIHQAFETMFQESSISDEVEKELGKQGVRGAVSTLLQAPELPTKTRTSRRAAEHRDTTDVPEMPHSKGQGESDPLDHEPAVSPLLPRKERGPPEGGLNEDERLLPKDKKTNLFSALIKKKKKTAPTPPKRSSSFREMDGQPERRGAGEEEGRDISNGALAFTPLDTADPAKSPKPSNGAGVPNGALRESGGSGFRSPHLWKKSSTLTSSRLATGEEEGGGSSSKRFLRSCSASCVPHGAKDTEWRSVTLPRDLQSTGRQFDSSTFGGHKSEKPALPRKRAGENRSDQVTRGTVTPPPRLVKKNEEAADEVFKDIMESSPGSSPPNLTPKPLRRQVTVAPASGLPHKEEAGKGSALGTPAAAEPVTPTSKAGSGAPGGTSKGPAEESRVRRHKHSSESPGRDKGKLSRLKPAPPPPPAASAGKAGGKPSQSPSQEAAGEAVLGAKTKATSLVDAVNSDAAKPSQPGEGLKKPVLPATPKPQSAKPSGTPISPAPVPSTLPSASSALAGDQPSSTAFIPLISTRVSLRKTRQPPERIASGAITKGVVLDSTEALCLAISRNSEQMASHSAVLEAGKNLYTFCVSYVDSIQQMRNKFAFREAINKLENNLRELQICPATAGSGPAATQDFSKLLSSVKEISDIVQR
Tyrosine-protein kinase ITK/TSK, sequence (Q08881 whole entry, the tested form may be a part): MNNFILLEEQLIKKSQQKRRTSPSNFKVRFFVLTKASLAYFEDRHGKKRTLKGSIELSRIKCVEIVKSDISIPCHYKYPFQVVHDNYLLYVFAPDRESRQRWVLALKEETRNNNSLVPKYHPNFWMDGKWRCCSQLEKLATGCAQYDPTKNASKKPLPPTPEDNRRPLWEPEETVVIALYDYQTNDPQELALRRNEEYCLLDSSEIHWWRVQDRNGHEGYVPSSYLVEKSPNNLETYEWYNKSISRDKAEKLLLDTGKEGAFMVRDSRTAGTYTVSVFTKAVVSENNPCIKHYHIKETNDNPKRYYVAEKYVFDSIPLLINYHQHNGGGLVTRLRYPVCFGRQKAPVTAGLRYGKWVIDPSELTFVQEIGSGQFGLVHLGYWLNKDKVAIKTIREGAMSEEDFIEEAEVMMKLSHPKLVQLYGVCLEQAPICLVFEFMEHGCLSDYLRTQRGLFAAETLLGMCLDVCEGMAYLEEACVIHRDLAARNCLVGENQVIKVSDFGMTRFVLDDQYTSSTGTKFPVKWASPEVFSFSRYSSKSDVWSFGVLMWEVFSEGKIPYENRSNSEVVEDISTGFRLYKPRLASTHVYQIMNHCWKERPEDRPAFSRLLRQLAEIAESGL
Tyrosine-protein kinase CSK, sequence (P41240 whole entry): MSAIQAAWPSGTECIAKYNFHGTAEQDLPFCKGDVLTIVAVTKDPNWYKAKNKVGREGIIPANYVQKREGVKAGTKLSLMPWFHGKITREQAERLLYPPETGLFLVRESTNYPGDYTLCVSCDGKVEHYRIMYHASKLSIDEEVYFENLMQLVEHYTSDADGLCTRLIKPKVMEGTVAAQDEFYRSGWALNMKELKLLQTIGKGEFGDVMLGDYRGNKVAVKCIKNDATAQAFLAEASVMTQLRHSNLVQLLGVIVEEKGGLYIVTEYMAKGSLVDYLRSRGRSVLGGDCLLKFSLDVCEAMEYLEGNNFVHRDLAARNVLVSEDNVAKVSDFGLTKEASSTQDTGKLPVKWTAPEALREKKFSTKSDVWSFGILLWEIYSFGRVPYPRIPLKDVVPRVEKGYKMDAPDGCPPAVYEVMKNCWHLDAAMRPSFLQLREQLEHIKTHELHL

C=CS(=O)(=O)N1CCC[C@@H]1Cn1cc(-c2ccc3c(c2)OCO3)c2c(N)ncnc21
IC50 [1]: 89.5 nM | IC50 (A549): 4150 nM | IC50 [2]: 115 nM | IC50 [3]: 5650 nM | IC50 [4]: 643 nM | IC50 [5]: 1000 nM | IC50 [6]: 76.4 nM | IC50 [7]: 195 nM | IC50 [8]: 430 nM | IC50 [9]: 220 nM | IC50 [10]: 802 nM | IC50 [11]: 2830 nM | IC50 [12]: > 10000 nM | IC50 [13]: > 10000 nM | Ratio IC50 (Homo sapiens [14]): 28.1 | Ratio IC50 (Homo sapiens [15]): 229 | Ratio IC50 (Homo sapiens [16]): 5.3 | Ratio IC50 (Homo sapiens [17]): 2.1 | Ratio IC50 (Homo sapiens [18]): 1.6 | Ratio IC50 (Homo sapiens [19]): 5.5 | Ratio IC50 (Homo sapiens [20]): 8.3 | Ratio IC50 (Homo sapiens [21]): 5.9 | Ratio IC50 (Homo sapiens [22]): 166 | Ratio IC50 (Homo sapiens [23]): > 280 | Ratio IC50 (Homo sapiens [24]): > 280 | Ratio IC50 (Homo sapiens [25]): > 280 | Ratio IC50 (Homo sapiens [26]): > 280 | Activity (Mus musculus [27]): Non-Toxic | Activity (Mus musculus [28]): Non-Toxic | Activity (Mus musculus [29]): Non-Toxic

— ChEMBL document CHEMBL4052785, “Discovery of (R)-5-(benzo[d][1,3]dioxol-5-yl)-7-((1-(vinylsulfonyl)pyrrolidin-2-yl)methyl)-7H-pyrrolo[2,3-d]pyrimidin-4-amine (B6) as a potent Bmx inhibitor for the treatment of NSCLC” (Bioorg Med Chem Lett, 2017)
